Consider 24 compounds from PubChem BioAssay AID276 (DTP/NCI, 2004).

The structures appear in SMILES notation. Values joined by “and” are separate entries in the source; they are usually repeats but may differ in a detail not shown here. Identical values can stand only once. Inconclusive results and toxic doses are left out.

The test system of the experiment is B6C3F1 mice, Lewis lung carcinoma iv, survival T/C. Put plainly: NCI In Vivo Anticancer Drug Screen. Data for tumor model Lewis Lung Carcinoma (intravenous) in B6C3F1 mice. The settings on record: endpoint: median survival time, higher = longer survival. In outline:
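Transplantable tumor in mice; compound treated vs vehicle controls; read-out survival; value = treated/control (T/C).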

[1] abbreviates: dose: 25.0 mg/kg/injection, schedule: Q01DX009 (ip), vehicle: Klucel (hydroxypropylcellulose) (HPC).
Where [2] appears, read: dose: 50.0 mg/kg/injection, schedule: Q01DX009 (ip), vehicle: Klucel (hydroxypropylcellulose) (HPC).
[3] abbreviates: dose: 100.0 mg/kg/injection, schedule: Q01DX009 (ip), vehicle: Klucel (hydroxypropylcellulose) (HPC).
Setting [4] is: dose: 200.0 mg/kg/injection, schedule: Q01DX009 (ip), vehicle: Klucel (hydroxypropylcellulose) (HPC).
Where [5] appears, read: dose: 400.0 mg/kg/injection, schedule: Q01DX009 (ip), vehicle: Klucel (hydroxypropylcellulose) (HPC).
[6] abbreviates: dose: 25.0 mg/kg/injection, schedule: Q01DX009 (ip), vehicle: saline.
Setting [7] is: dose: 50.0 mg/kg/injection, schedule: Q01DX009 (ip), vehicle: saline.
Setting [8] is: dose: 100.0 mg/kg/injection, schedule: Q01DX009 (ip), vehicle: saline.
Where [9] appears, read: dose: 200.0 mg/kg/injection, schedule: Q01DX009 (ip), vehicle: saline.
The mark [10] stands for this setting: dose: 400.0 mg/kg/injection, schedule: Q01DX009 (ip), vehicle: saline.
The mark [11] stands for this setting: dose: 12.5 mg/kg/injection, schedule: Q01DX009 (ip), vehicle: saline.
The mark [12] stands for this setting: dose: 12.5 mg/kg/injection, schedule: Q01DX009 (ip), vehicle: saline with Tween-80.
Setting [13] is: dose: 25.0 mg/kg/injection, schedule: Q01DX009 (ip), vehicle: saline with Tween-80.
[14] abbreviates: dose: 50.0 mg/kg/injection, schedule: Q01DX009 (ip), vehicle: saline with Tween-80.
The mark [15] stands for this setting: dose: 100.0 mg/kg/injection, schedule: Q01DX009 (ip), vehicle: saline with Tween-80.
The mark [16] stands for this setting: dose: 200.0 mg/kg/injection, schedule: Q01DX009 (ip), vehicle: saline with Tween-80.
Setting [17] is: dose: 400.0 mg/kg/injection, schedule: Q01DX009 (ip), vehicle: saline with Tween-80.
Setting [18] is: dose: 12.5 mg/kg/injection, schedule: Q01DX009 (ip), vehicle: Klucel (hydroxypropylcellulose) (HPC).
Where [19] appears, read: dose: 800.0 mg/kg/injection, schedule: Q01DX009 (ip), vehicle: saline.

`CC1=C/C(O)CC(=O)Cc2nc(co2)C(=O)N2CCC=C2C(=O)OC(C(C)C)C(C)/C=C\C(=O)NC/C=C\1` (stereo not given): the T/C was 98 % of control under setting [1]; 104 % of control under setting [2]; 92 % of control under setting [3]; 97 % of control under setting [4]; 104 % of control under setting [5].
Consider `O=C1CCC(=O)N1CO`, for which the T/C is, setting by setting: under setting [6], 94 % of control; under setting [7], 98 % of control; under setting [8], 94 % of control; under setting [9], 103 % of control; under setting [10], 106 % of control.
For the compound `NC(=O)c1ccc[n+](Cc2c(Cl)cccc2Cl)c1`, the T/C by setting is: (dose: 5.0 mg/kg/injection, schedule: Q01DX009 (ip), vehicle: saline) 104 % of control; (dose: 10.0 mg/kg/injection, schedule: Q01DX009 (ip), vehicle: saline) 105 % of control; (dose: 20.0 mg/kg/injection, schedule: Q01DX009 (ip), vehicle: saline) 104 % of control; (dose: 40.0 mg/kg/injection, schedule: Q01DX009 (ip), vehicle: saline) 91 % of control.
Consider `CCCCn1cnc2c(=S)nc[nH]c21`, for which the T/C is, setting by setting: under setting [6], 112 % of control; under setting [7], 110 % of control.
Take `CN=C(NC#N)NCCSCc1nc[nH]c1C`: the T/C runs as follows: (dose: 12.0 mg/kg/injection, schedule: Q01DX009 (ip), vehicle: Klucel (hydroxypropylcellulose) (HPC)) 104 % of control; under setting [1], 100 % of control; under setting [2], 103 % of control; under setting [3], 99 % of control; under setting [4], 105 % of control; under setting [5], 95 % of control.
With `CC[PH+](CC)CC[S-].CC[PH+](CC)CC[S-].[Au+].[Au+]`, the T/C by setting is: (dose: 2.5 mg/kg/injection, schedule: Q01DX009 (ip), vehicle: Klucel (hydroxypropylcellulose) (HPC)) 99 % of control; (dose: 5.0 mg/kg/injection, schedule: Q01DX009 (ip), vehicle: Klucel (hydroxypropylcellulose) (HPC)) 100 % of control; (dose: 10.0 mg/kg/injection, schedule: Q01DX009 (ip), vehicle: Klucel (hydroxypropylcellulose) (HPC)) 98 % of control; (dose: 20.0 mg/kg/injection, schedule: Q01DX009 (ip), vehicle: Klucel (hydroxypropylcellulose) (HPC)) 96 % of control.
As for `CCCCCNc1ncnc2c(C)[nH]nc12`, the T/C was 103 % of control under setting [1], 94 % of control under setting [2] and 108 % of control under setting [3].
In the case of `NC1=NC(=O)N2CC12` (stereo not given), the T/C reads like this: under setting [11], 110 % of control; under setting [6], 110 % of control; under setting [8], 110 % of control; under setting [9], 109 % of control.
For `CN(C)P(=O)(Oc1ccccc1)N(C)C`, the T/C reads like this: under setting [12], 113 % of control; under setting [13], 98 % of control; under setting [14], 101 % of control; under setting [15], 115 % of control; under setting [16], 101 % of control; under setting [17], 100 % of control.
In the case of `O=P(O)(NCCCl)NCCCl`, the T/C by setting is: (dose: 25.0 mg/kg/injection, schedule: Q01DX001 (ip), vehicle: saline with Tween-80) 108 % of control; (dose: 100.0 mg/kg/injection, schedule: Q01DX001 (ip), vehicle: saline with Tween-80) 184 % of control and 226 % of control and 312 % of control; (dose: 200.0 mg/kg/injection, schedule: Q01DX001 (ip), vehicle: saline with Tween-80) 281 % of control.
As to `S=C(Nc1ccc(Cl)c(Cl)c1)N1c2ccccc2-n2cccc2C1c1cccnc1` (stereo not given), the T/C by setting is: under setting [18], 106 % of control; under setting [1], 109 % of control; under setting [2], 98 % of control; under setting [3], 102 % of control; under setting [4], 113 % of control.
For the compound `[Cl][Co]([Cl])[Cl].[NH-]CC[N-]CC[NH-]`, the T/C is 103 % of control under setting [6], 96 % of control under setting [7] and 93 % of control under setting [8].
For `O=C(NC1CCCCC1)OCc1c(COC(=O)NC2CCCCC2)c(-c2ccc(Cl)c(Cl)c2)n2c1CCC2`, the T/C by setting is: under setting [13], 100 % of control and 108 % of control; under setting [14], 102 % of control and 105 % of control; under setting [15], 95 % of control and 108 % of control; under setting [16], 106 % of control and 113 % of control; under setting [17], 110 % of control and 120 % of control.
In the case of `CCCCCC[C@@H](O)C/C=C\CCCCCCCC(=O)OCCO`, the T/C reads like this: under setting [6], 91 % of control; under setting [7], 100 % of control; under setting [8], 99 % of control; under setting [9], 101 % of control; under setting [10], 99 % of control; under setting [19], 100 % of control.
As for `O=c1oc2c(O)c(O)cc3c(=O)oc4c(O)c(O)cc1c4c23`, the T/C is 105 % of control under setting [18], 105 % of control under setting [1], 106 % of control under setting [2] and 110 % of control under setting [3].
For `COc1ccc2ccccc2c1C1NC(=O)c2ccccc2N1` (stereo not given), the T/C reads like this: under setting [18], 97 % of control; under setting [1], 100 % of control; under setting [3], 99 % of control; under setting [4], 101 % of control; under setting [5], 101 % of control.
Turning to `O=C1OC(=O)[C@H]2[C@@H]1[C@H]1C=C[C@@H]2OC1=O`, the T/C (dose: 12.5 mg/kg/injection, schedule: Q01DX009 (ip), vehicle: suspension in saline) was 104 % of control; the T/C (dose: 25.0 mg/kg/injection, schedule: Q01DX009 (ip), vehicle: suspension in saline) was 119 % of control; the T/C (dose: 50.0 mg/kg/injection, schedule: Q01DX009 (ip), vehicle: suspension in saline) is 98 % of control; the T/C (dose: 100.0 mg/kg/injection, schedule: Q01DX009 (ip), vehicle: suspension in saline) was 99 % of control; the T/C (dose: 200.0 mg/kg/injection, schedule: Q01DX009 (ip), vehicle: suspension in saline) was 104 % of control.
As for `C/C=C(\C)c1cc(=O)c2c(C)cc3c(c2o1)C(=O)c1c(O)c(C2CC(C)(N(C)C)C(O)C(C)O2)cc(C2CC(N(C)C)C(O)C(C)O2)c1C3=O` (stereo not given), the T/C (dose: 31.25 micrograms/kg/injection, schedule: Q01DX009 (ip), vehicle: saline) was 98 % of control; the T/C (dose: 62.5 micrograms/kg/injection, schedule: Q01DX009 (ip), vehicle: saline) was 101 % of control; the T/C (dose: 125.0 micrograms/kg/injection, schedule: Q01DX009 (ip), vehicle: saline) is 101 % of control; the T/C (dose: 250.0 micrograms/kg/injection, schedule: Q01DX009 (ip), vehicle: saline) was 98 % of control.
In the case of `OCCCN1CCCCC1CO` (stereo not given), the T/C under setting [10] was 96 % of control and the T/C under setting [19] was 97 % of control.
For the compound `C=CCc1cn(C2CC(O)C(CO)O2)c(=O)[nH]c1=O` (stereo not given), the T/C is 100 % of control under setting [11]; 88 % of control under setting [6]; 87 % of control under setting [7]; 100 % of control under setting [8]; 96 % of control under setting [9]; 98 % of control under setting [10].
For the compound `Oc1c(Cl)cc(C(c2cc(Cl)c(O)c(Cl)c2)C(c2cc(Cl)c(O)c(Cl)c2)c2cc(Cl)c(O)c(Cl)c2)cc1Cl`, the T/C is 98 % of control under setting [18]; 101 % of control under setting [1]; 104 % of control under setting [2]; 103 % of control under setting [3]; 106 % of control under setting [4].
For `CC1(C)COCN1COCCOCN1COCC1(C)C`, the T/C runs as follows: (dose: 6.25 mg/kg/injection, schedule: Q01DX009 (ip), vehicle: saline) 103 % of control; under setting [11], 108 % of control; under setting [6], 97 % of control; under setting [7], 104 % of control; under setting [8], 107 % of control.
Take `O=C(O)CSc1c(Cl)c(=O)oc2ccc(Cl)cc12`: the T/C runs as follows: (dose: 6.25 mg/kg/injection, schedule: Q01DX009 (ip), vehicle: Klucel (hydroxypropylcellulose) (HPC)) 93 % of control; under setting [18], 93 % of control; under setting [1], 94 % of control; under setting [2], 98 % of control; under setting [3], 98 % of control.
In the case of `Nc1nnc[se]1`, the T/C by setting is: (dose: 3.12 mg/kg/injection, schedule: Q01DX009 (ip), vehicle: saline with Tween-80) 122 % of control; (dose: 6.25 mg/kg/injection, schedule: Q01DX009 (ip), vehicle: saline with Tween-80) 123 % of control; under setting [12], 123 % of control.
